Measurements as given in paper PMC8557474, “Reliability of the AR-CALUX®In Vitro Method Used to Detect Chemicals with (Anti)Androgen Activity: Results of an International Ring Trial” (Toxicological Sciences, 2021).

Experiments:
[1] = system: androgen receptor; set-up: method as in Park et al., 2021; conditions: ref Park et al., 2021; cited from earlier work
[2] = system: androgen receptor; conditions: ref OECD, 2020b; cited from earlier work
[3] = system: androgen receptor; set-up: method as in Park et al., 2021; conditions: ref Park et al., 2021; cited from earlier work; remark: listed apart in the source
[4] = system: androgen receptor; set-up: method as in Kleinstreuer et al., 2017; conditions: ref Kleinstreuer et al., 2017; cited from earlier work
[5] = system: AR-CALUX cell line (U2-OS); assay: Cytotoxicity in the AR-CALUX assay (LDH leakage and visual inspection); type: cell-based, human; conditions: agonist assay
Protocol: Each test chemical was firstly tested at the highest soluble concentration, starting from 50 mg/ml. Subsequently, the test chemical was assessed with a prescreen run (dilution steps of 10) and simultaneously with the quantitative cytotoxicity test to determine (1) cytotoxic concentrations, (2) the response, and (3) the appropriate dose range to be tested. […] The cytotoxicity test was performed once more. Test chemicals were diluted in media and consisted of 8 serial dilutions. Each dilution was tested in triplicate.
Cytotoxicity was evaluated in both the agonist and antagonist assay and was carried out with the LDH test which can be performed in parallel to the agonist/antagonist assay and for which no extra plates have to be prepared. A drawback of this test is that the measurement will occur when leakage happens, ie, when the cell wall is degrading and thus the cell is dead. Early events in the onset of cell death cannot be measured with this test. For this reason, the AR-CALUX® method stated that the cytotoxicity of the exposed cells should also be assessed visually (microscopy).

[6] = system: androgen receptor; conditions: tested at high concentrations (10 µM); ref Sonneveld et al., (2005); cited from earlier work

Question: For `C[C@]12CC[C@@H]3c4ccc(O)cc4CC[C@H]3[C@@H]1CC[C@@H]2O` [17β-Estradiol], which “22Rv1/MMTV/GR-KO TA agonist result in words” value [1] is on record?
Answer: AR agonist activity

Question: What about the “AR-EcoScreen agonist result in words” value [2] of the same compound?
Answer: AR agonist activity

Question: What about the “22Rv1/MMTV/GR-KO TA antagonist result in words” value [3] of the same compound?
Answer: AR antagonist response

Question: For `CC(=O)O[C@]1(C(C)=O)CC[C@H]2[C@@H]3C=C(Cl)C4=CC(=O)[C@@H]5C[C@@H]5[C@]4(C)[C@H]3CC[C@@]21C` [Cyproterone acetate], which “AR-Reference list agonist result in words” value [4] is on record?
Answer: weak positive

Question: What about the highest nontoxic concentration [5] of the same compound?
Answer: 3 µM

Question: Which “22Rv1/MMTV/GR-KO TA agonist result in words” value [1] does the source give for `CC(=O)[C@H]1CC[C@H]2[C@@H]3CCC4=CC(=O)CC[C@]4(C)[C@H]3CC[C@]12C` [Progesterone] here?
Answer: positive

Question: And the “RTA in comparison to DHT” value [6]?
Answer: 36%
